# In patent US20080004561A1, “Method for Treating Oncological, Virulent and Somatic Diseases, Method for Controlling Treatment Efficiency, Pharmaceutical Agents and Composition for Carrying Out Said Treatment” (priority 2005, published 2008):
# Experiments:
# [1] = tested on: Staphylococcus aureus VT-2003R; assay: DNase use for treatment of the experimental sepsis (Example 5); assay type: in vivo; conditions: mice, DNase 500 mkg/kg intraperitoneally four times a day, 1-3 days after infection
# Source text: White not thoroughbred mice were used for experiment. Animals' weight was 24-26 grams. Pathogenic strain of Staphylococcus aureus VT-2003R at 1×10^10 bacteria/animal dose was inoculated to retroorbital sinus of animals. DNase was intraperitoneally administered. Isotonic solution of sodium chloride or Penicillin was administrated to control groups. Each experimental group contained 10 mice. Intraperitoneal administration of compound (DNAase) four times a day at 500 mkg/kg dose continued for 1-3 days after infection. Penicillin was intramusculary administrated. Efficiency of action was estimated by number of animals that stayed alive after the death of the last one in control group. All animals have died to the third day of the experiment in control group. Six animals stayed alive to the third day of the experiment in the group that administrated DNase. Protection was […]. Received data specify an opportunity and efficiency of DNase use for infections' treatment.
# metastases development = conditions: systemic introduction; Sugihara S. et al. (1990, 1993); cited from earlier work
substance,measurement,setting,value
DNase,Number of animals that stayed alive to the third day,[1]; 10 per group,Six
same,Protection,[1],67%
same,Metastases development,metastases development,could slow metastases development
